{"source": "paper PMC2877818", "about": "“Thermodynamics of RTA3 peptide binding to membranes and consequences for antimicrobial activity^” (Biochimica et Biophysica Acta, 2010)", "key": {"E. coli UB 122": {"test_system": "E. coli UB 122", "assay_type": "cell-based", "details": "broth microdilution, Mueller Hinton (plus cations) broth, 24 hours at 37 °C; triplicate, averaged"}, "[1]": {"test_system": "E. coli 122 inner membrane", "test": "Inner membrane permeabilization to ONPG", "details": "read-out: IM permeabilization: peptide concentration resulting in half-maximal translocated substrate turnover, PBS pH 7.4, 30 °C, triplicate", "quoted_text": "Inner membrane permeability was determined by measuring the β-galactosidase activity of lactose permease-deficient E. coli at 30 °C using ONPG as substrate. E. coli cells overexpressing the β- galactosidase enzyme (E. coli 122) were grown to logarithmic phase, washed, and resuspended (10^8 CFU/mL) in phosphate buffered saline pH 7.4. About 90 µL of 1 × 10^7 CFU of the test organism containing 0.4 mg/mL ONPG was then added to 96-well microtitre plates containing serial twofold dilutions of antimicrobial peptides. The production of o-nitrophenol was monitored spectrophotometrically at 420 nm. An equivalent volume of water replaced the peptide solution in the control assay. All data were measured in triplicate."}, "E. coli ATCC 25922": {"test_system": "E. coli ATCC 25922", "assay_type": "cell-based", "details": "broth microdilution, Mueller Hinton (plus cations) broth, 24 hours at 37 °C, no visible growth; triplicate, averaged", "procedure": "(§1) Minimum inhibitory concentrations (MIC) of the peptides were determined by broth microdilution according to the Clinical and Laboratory Standards Institute. About 90 µL of 0.5–1 × 10^6 CFU/mL of Pseudomonas aeruginosa ATCC 27853 and E. coli ATCC 25922 in Mueller Hinton media (plus cations) broth (BD, Baltimore, MD, USA) was incubated in 96-well microtitre plates with serial twofold dilutions of the peptides. Minimum inhibitory concentrations (MICs) were defined as the lowest peptide concentration with no visible growth of bacteria after 24 hours at 37 °C. All measurements were made in triplicate and averaged."}, "E. coli 345-2": {"test_system": "E. coli 345-2", "assay_type": "cell-based", "details": "broth microdilution, Mueller Hinton (plus cations) broth, 24 hours at 37 °C; triplicate, averaged"}, "P. aeruginosa ATCC 27853": {"test_system": "P. aeruginosa ATCC 27853", "assay_type": "cell-based, Pseudomonas aeruginosa", "details": "broth microdilution, Mueller Hinton (plus cations) broth, 24 hours at 37 °C, no visible growth; triplicate, averaged", "procedure": "as §1"}, "[2]": {"test_system": "E. coli 345-2 outer membrane", "test": "Outer membrane permeabilization to nitrocefin", "details": "read-out: OM permeabilization: peptide concentration resulting in half-maximal translocated substrate turnover, triplicate", "quoted_text": "Outer and inner membrane permeabilities were determined as described previously [16]. E. coli cells overexpressing β-lactamase were grown to logarithmic phase, washed, and resuspended (10^8 CFU/mL) in 10 mM HEPES buffer pH 7.4. About 90 µL of 1 × 10^7 CFU of the test organism (E. coli 345-2) containing 20 µg/mL nitrocefin was then added to 96-well microtitre plates containing serial twofold dilutions of antimicrobial peptides. Nitrocefin cleavage was monitored by measuring A490. All data were measured in triplicate."}}, "note": "Like-named read-outs stand apart in the source and are kept apart here.", "data": [{"substance": "Polymyxin E", "values": [{"measurement": "MIC E. coli UB 122", "setting": "E. coli UB 122", "value": 0.5, "unit": "µM"}, {"measurement": "EC50", "setting": "[1]; +Mg2+ (0.4 mM MgCl2), ONPG", "value": "> 100000", "unit": "nM"}, {"measurement": "EC50", "setting": "[1]; −Mg2+, ONPG 0.4 mg/mL, 420 nm", "value": "> 40000", "unit": "nM"}, {"measurement": "MIC E. coli ATCC 25922", "setting": "E. coli ATCC 25922", "value": 1, "unit": "µM"}, {"measurement": "MIC E. coli 345-2", "setting": "E. coli 345-2", "value": 0.5, "unit": "µM"}, {"measurement": "MIC P. aeruginosa ATCC 27853", "setting": "P. aeruginosa ATCC 27853", "value": 2, "unit": "µM"}, {"measurement": "EC50", "setting": "[2]; +Mg2+ (0.4 mM MgCl2), nitrocefin, 10 mM HEPES pH 7.4", "value": 1800, "unit": "nM"}, {"measurement": "EC50", "setting": "[2]; −Mg2+, nitrocefin 20 µg/mL, 10 mM HEPES pH 7.4, A490", "value": 2000, "unit": "nM"}]}]}
